Results published in ChEMBL document CHEMBL1157058, “3D-QSAR studies on quinazoline antifolate thymidylate synthase inhibitors by CoMFA and CoMSIA models” (Eur J Med Chem, 2010).

Target: Thymidylate synthase (Homo sapiens, UniProt P04818)
Assay: Inhibition of thymidylate synthase

Chain of Thymidylate synthase (P04818 whole entry): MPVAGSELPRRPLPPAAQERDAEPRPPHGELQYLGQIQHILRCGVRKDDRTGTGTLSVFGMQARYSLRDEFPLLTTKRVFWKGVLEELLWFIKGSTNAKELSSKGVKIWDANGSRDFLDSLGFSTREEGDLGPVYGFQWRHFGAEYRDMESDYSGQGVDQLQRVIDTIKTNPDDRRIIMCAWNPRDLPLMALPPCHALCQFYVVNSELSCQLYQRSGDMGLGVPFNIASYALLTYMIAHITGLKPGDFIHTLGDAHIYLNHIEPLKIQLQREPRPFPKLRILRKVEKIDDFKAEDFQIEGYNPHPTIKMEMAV

Compound	IC50 [nM]
CC(=O)CN(Cc1ccc2nc(C)[nH]c(=O)c2c1)c1ccc(C(=O)N[C@@H](CCC(=O)O)C(=O)O)cc1	25100
Cc1nc2ccc(CN(CCN)c3ccc(C(=O)N[C@@H](CCC(=O)O)C(=O)O)c(F)c3)cc2c(=O)[nH]1	11700
Cc1nc2ccc(CNc3ccc(C(=O)N[C@@H](CCC(=O)O)C(=O)O)cc3F)cc2c(=O)[nH]1	9330
Cc1nc2ccc(CNc3ccc(C(=O)N[C@@H](CCC(=O)O)C(=O)O)c(F)c3)cc2c(=O)[nH]1	3800
Cc1nc2ccc(CN(CCO)c3ccc(C(=O)N[C@@H](CCC(=O)O)C(=O)O)cc3F)cc2c(=O)[nH]1	3550
CN(Cc1ccc2nc(CF)[nH]c(=O)c2c1)c1ccc(C(=O)N[C@@H](CCC(=O)O)C(=O)O)cc1	2880
Cc1nc2ccc(CN(CCCO)c3ccc(C(=O)N[C@@H](CCC(=O)O)C(=O)O)cc3F)cc2c(=O)[nH]1	977
COCCCN(Cc1ccc2nc(C)[nH]c(=O)c2c1)c1ccc(C(=O)N[C@@H](CCC(=O)O)C(=O)O)cc1	12900
Cc1nc2ccc(CN(CCF)c3ccc(C(=O)N[C@@H](CCC(=O)O)C(=O)O)cc3F)cc2c(=O)[nH]1	1740
C=CCN(Cc1ccc2nc(C)[nH]c(=O)c2c1)c1ccc(C(=O)N[C@@H](CCC(=O)O)C(=O)O)cc1F	5130
Cc1nc2ccc(CN(CCS)c3ccc(C(=O)N[C@@H](CCC(=O)O)C(=O)O)cc3)cc2c(=O)[nH]1	1780
CCN(Cc1ccc2nc(C)[nH]c(=O)c2c1)c1ccc(C(=O)N[C@@H](CCC(=O)O)C(=O)O)cc1F	676
CCc1nc2ccc(CNc3ccc(C(=O)N[C@@H](CCC(=O)O)C(=O)O)cc3)cc2c(=O)[nH]1	20000
Cc1nc2ccc(CN(C)c3ccc(C(=O)N[C@@H](CCC(=O)O)C(=O)O)c(N)c3)cc2c(=O)[nH]1	851
Cc1nc2ccc(CN(CCO)c3ccc(C(=O)N[C@@H](CCC(=O)O)C(=O)O)s3)cc2c(=O)[nH]1	1200
Cc1nc2ccc(CN(CCCO)c3ccc(C(=O)N[C@@H](CCC(=O)O)C(=O)O)s3)cc2c(=O)[nH]1	3390
Cc1nc2ccc(CN(CC#N)c3ccc(C(=O)N[C@@H](CCC(=O)O)C(=O)O)s3)cc2c(=O)[nH]1	3090
Cc1nc2ccc(CN(CCCO)c3cnc(C(=O)N[C@@H](CCC(=O)O)C(=O)O)s3)cc2c(=O)[nH]1	1740

Compound	IC50 [nM]
Cc1nc2ccc(CNc3cnc(C(=O)N[C@@H](CCC(=O)O)C(=O)O)s3)cc2c(=O)[nH]1	7080
CCN(Cc1ccc2nc(C)[nH]c(=O)c2c1)c1ncc(C(=O)N[C@@H](CCC(=O)O)C(=O)O)s1	759
CCN(Cc1ccc2nc(C)[nH]c(=O)c2c1)c1nnc(C(=O)N[C@@H](CCC(=O)O)C(=O)O)s1	933
CCCN(Cc1ccc2nc(C)[nH]c(=O)c2c1)c1ccc(C(=O)N[C@@H](CCC(=O)O)C(=O)O)s1	1860
C=CCN(Cc1ccc2nc(C)[nH]c(=O)c2c1)c1ccc(C(=O)N[C@@H](CCC(=O)O)C(=O)O)s1	1660
C=CCN(Cc1ccc2nc(C)[nH]c(=O)c2c1)c1cnc(C(=O)N[C@@H](CCC(=O)O)C(=O)O)s1	1070
COCCN(Cc1ccc2nc(C)[nH]c(=O)c2c1)c1ccc(C(=O)N[C@@H](CCC(=O)O)C(=O)O)cc1	16200
Cc1nc2ccc(CN(C)c3ccc(C(=O)N[C@@H](CCC(=O)O)C(=O)O)cn3)cc2c(=O)[nH]1	4270
C#CCN(Cc1ccc2nc(C)[nH]c(=O)c2c1)c1ccc(C(=O)N[C@@H](CCC(=O)O)C(=O)O)nc1	39.8
C#CCN(Cc1ccc2nc(C)[nH]c(=O)c2c1)c1ccc(C(=O)N[C@@H](CCC(=O)O)C(=O)O)cc1F	1450
Cc1nc2ccc(CN(CCBr)c3ccc(C(=O)N[C@@H](CCC(=O)O)C(=O)O)cc3)cc2c(=O)[nH]1	1290
Cc1nc2ccc(CN(CC(N)=O)c3ccc(C(=O)N[C@@H](CCC(=O)O)C(=O)O)c(F)c3)cc2c(=O)[nH]1	1350
Cc1nc2ccc(CN(C)c3ccc(C(=O)N[C@@H](CCC(=O)O)C(=O)O)c(C)c3)cc2c(=O)[nH]1	933
Cc1nc2ccc(CN(C)c3cnc(C(=O)N[C@@H](CCC(=O)O)C(=O)O)nc3)cc2c(=O)[nH]1	2340
C=CCN(Cc1ccc2nc(C)[nH]c(=O)c2c1)c1ccc(C(=O)N[C@@H](CCC(=O)O)C(=O)O)nc1	759
Cc1nc2ccc(CNc3ccc(C(=O)N[C@@H](CCC(=O)O)C(=O)O)s3)cc2c(=O)[nH]1	24500
Cc1nc2ccc(CNc3ccc(C(=O)N[C@@H](CCC(=O)O)C(=O)O)cc3)cc2c(=O)[nH]1	4470
Cc1nc2ccc(CN(C)c3ccc(C(=O)N[C@@H](CCC(=O)O)C(=O)O)cc3F)cc2c(=O)[nH]1	1150

The remaining compounds from weak to strong by IC50, led by results:

IC50 [nM]	Compound
589	Cc1nc2ccc(CN(CCCO)c3ccc(C(=O)N[C@@H](CCC(=O)O)C(=O)O)c(F)c3)cc2c(=O)[nH]1
575	CCN(Cc1ccc2nc(C)[nH]c(=O)c2c1)c1ccc(C(=O)N[C@@H](CCC(=O)O)C(=O)O)s1
550	Cc1nc2ccc(CN(CCF)c3ccc(C(=O)N[C@@H](CCC(=O)O)C(=O)O)s3)cc2c(=O)[nH]1
537	Cc1nc2ccc(CN(CCCO)c3ccc(C(=O)N[C@@H](CCC(=O)O)C(=O)O)cc3)cc2c(=O)[nH]1
501	Cc1nc2ccc(CN(CCO)c3ccc(C(=O)N[C@@H](CCC(=O)O)C(=O)O)cc3)cc2c(=O)[nH]1
501	C#CCN(Cc1ccc2nc(C)[nH]c(=O)c2c1)c1ccc(C(=O)N[C@@H](CCC(=O)O)C(=O)O)c(C)c1
479	C#CCN(Cc1ccc2nc(C)[nH]c(=O)c2c1)c1ccc(C(=O)N[C@@H](CCC(=O)O)C(=O)O)c(C(F)(F)F)c1
479	C=CCN(Cc1ccc2nc(C)[nH]c(=O)c2c1)c1ccc(C(=O)N[C@@H](CCC(=O)O)C(=O)O)cc1
437	C#CCN(Cc1ccc2nc(C)[nH]c(=O)c2c1)c1ccc(C(=O)N[C@@H](CCC(=O)O)C(=O)O)s1
417	Cc1nc2ccc(CN(CCO)c3cnc(C(=O)N[C@@H](CCC(=O)O)C(=O)O)s3)cc2c(=O)[nH]1
417	Cc1nc2ccc(CN(C)c3cnc(C(=O)N[C@@H](CCC(=O)O)C(=O)O)s3)cc2c(=O)[nH]1
347	Cc1nc2ccc(CN(C)c3ccc(C(=O)N[C@@H](CCC(=O)O)C(=O)O)nc3)cc2c(=O)[nH]1
316	CCN(Cc1ccc2nc(C)[nH]c(=O)c2c1)c1ccc(C(=O)N[C@@H](CCC(=O)O)C(=O)O)c(C)c1
309	CCN(Cc1ccc2nc(C)[nH]c(=O)c2c1)c1ccc(C(=O)N[C@@H](CCC(=O)O)C(=O)O)c(N)c1
302	Cc1nc2ccc(CN(C)c3ccc(C(=O)N[C@@H](CCC(=O)O)C(=O)O)cc3)cc2c(=O)[nH]1
288	C#CCN(Cc1ccc2nc(C)[nH]c(=O)c2c1)c1ccc(C(=O)N[C@@H](CCC(=O)O)C(=O)O)c(N)c1
240	Cc1nc2ccc(CN(CCF)c3ccc(C(=O)N[C@@H](CCC(=O)O)C(=O)O)cc3)cc2c(=O)[nH]1
229	C#CCN(Cc1ccc2nc(C)[nH]c(=O)c2c1)c1cnc(C(=O)N[C@@H](CCC(=O)O)C(=O)O)s1
229	CCN(Cc1ccc2nc(C)[nH]c(=O)c2c1)c1cnc(C(=O)N[C@@H](CCC(=O)O)C(=O)O)s1
191	CCN(Cc1ccc2nc(C)[nH]c(=O)c2c1)c1ccc(C(=O)N[C@@H](CCC(=O)O)C(=O)O)c(OC)c1

IC50 [nM]	Compound
191	Cc1nc2ccc(CN(CCF)c3cnc(C(=O)N[C@@H](CCC(=O)O)C(=O)O)s3)cc2c(=O)[nH]1
170	Cc1nc2ccc(CN(CC#N)c3ccc(C(=O)N[C@@H](CCC(=O)O)C(=O)O)c(F)c3)cc2c(=O)[nH]1
170	CCN(Cc1ccc2nc(C)[nH]c(=O)c2c1)c1ccc(C(=O)N[C@@H](CCC(=O)O)C(=O)O)cc1
158	Cc1nc2ccc(CN(CCF)c3ccc(C(=O)N[C@@H](CCC(=O)O)C(=O)O)nc3)cc2c(=O)[nH]1
151	CCN(Cc1ccc2nc(C)[nH]c(=O)c2c1)c1ccc(C(=O)N[C@@H](CCC(=O)O)C(=O)O)nc1
145	CCN(Cc1ccc2nc(C)[nH]c(=O)c2c1)c1ccc(C(=O)N[C@@H](CCC(=O)O)C(=O)O)c([N+](=O)[O-])c1
129	C#CCN(Cc1ccc2nc(C)[nH]c(=O)c2c1)c1ccc(C(=O)N[C@@H](CCC(=O)O)C(=O)O)c([N+](=O)[O-])c1
120	CCN(Cc1ccc2nc(C)[nH]c(=O)c2c1)c1ccc(C(=O)N[C@@H](CCC(=O)O)C(=O)O)c(Cl)c1
120	Cc1nc2ccc(CN(C)c3ccc(C(=O)N[C@@H](CCC(=O)O)C(=O)O)c(F)c3)cc2c(=O)[nH]1
89.1	C#CCN(Cc1ccc2nc(C)[nH]c(=O)c2c1)c1ccc(C(=O)N[C@@H](CCC(=O)O)C(=O)O)c(O)c1
77.6	Cc1nc2ccc(CN(CCO)c3ccc(C(=O)N[C@@H](CCC(=O)O)C(=O)O)c(F)c3)cc2c(=O)[nH]1
75.9	C=CCN(Cc1ccc2nc(C)[nH]c(=O)c2c1)c1ccc(C(=O)N[C@@H](CCC(=O)O)C(=O)O)c(F)c1
74.1	C#CCN(Cc1ccc2nc(C)[nH]c(=O)c2c1)c1ccc(C(=O)N[C@@H](CCC(=O)O)C(=O)O)c(Cl)c1
67.6	C#CCN(Cc1ccc2nc(C)[nH]c(=O)c2c1)c1ccc(C(=O)N[C@@H](CCC(=O)O)C(=O)O)c(OC)c1
57.5	C#CCN(Cc1ccc2nc[nH]c(=O)c2c1)c1ccc(C(=O)N[C@@H](CCC(=O)O)C(=O)O)c(F)c1
44.7	CCN(Cc1ccc2nc(C)[nH]c(=O)c2c1)c1ccc(C(=O)N[C@@H](CCC(=O)O)C(=O)O)c(F)c1
42.7	Cc1nc2ccc(CN(CCF)c3ccc(C(=O)N[C@@H](CCC(=O)O)C(=O)O)c(F)c3)cc2c(=O)[nH]1
36.3	C#CCN(Cc1ccc2nc(OC)[nH]c(=O)c2c1)c1ccc(C(=O)N[C@@H](CCC(=O)O)C(=O)O)c(F)c1
20	C#CCN(Cc1ccc2nc(C)[nH]c(=O)c2c1)c1ccc(C(=O)N[C@@H](CCC(=O)O)C(=O)O)c(F)c1
8.91	C#CCN(Cc1ccc2nc(N)[nH]c(=O)c2c1)c1ccc(C(=O)N[C@@H](CCC(=O)O)C(=O)O)c(F)c1
